Measurements as given in ChEMBL document CHEMBL1138077, “Arylpiperazines with N-acylated amino acids as 5-HT1A receptor ligands” (Bioorg Med Chem Lett, 2006).

Biological target: T1, 5-hydroxytryptamine receptor 1A (Homo sapiens, UniProt P08908)
T1 sequence (P08908 whole entry): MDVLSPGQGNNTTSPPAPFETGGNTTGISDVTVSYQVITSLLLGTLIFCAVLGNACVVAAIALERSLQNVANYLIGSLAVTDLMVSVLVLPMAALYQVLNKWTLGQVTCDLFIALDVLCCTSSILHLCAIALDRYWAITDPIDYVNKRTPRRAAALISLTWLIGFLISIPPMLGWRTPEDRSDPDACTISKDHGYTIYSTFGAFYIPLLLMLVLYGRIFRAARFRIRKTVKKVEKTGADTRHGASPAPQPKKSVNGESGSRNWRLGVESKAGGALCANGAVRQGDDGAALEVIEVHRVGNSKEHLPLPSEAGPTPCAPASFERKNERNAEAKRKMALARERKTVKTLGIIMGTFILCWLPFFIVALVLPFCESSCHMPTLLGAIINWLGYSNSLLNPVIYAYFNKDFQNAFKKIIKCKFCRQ
Assay: Affinity for 5HT1A receptor

SMILES	Ki
COc1ccccc1N1CCN(CCCN2C(=O)C[C@H](NC(=O)C34CC5CC(CC(C5)C3)C4)C2=O)CC1	63 nM
COc1ccccc1N1CCN(CCCCN2C(=O)C[C@@H](NC(=O)C3CCCCC3)C2=O)CC1	17 nM
COc1ccccc1N1CCN(CCCCN2C(=O)C[C@H](NC(=O)CC3CC4CCC3C4)C2=O)CC1 (some centres undefined)	18 nM
COc1ccccc1N1CCN(CCCCN2C(=O)C[C@H](NC(=O)C3CCCC3)C2=O)CC1	40 nM
COc1ccccc1N1CCN(CCCCNC(=O)[C@H](CC(N)=O)NC(=O)C2CCCCC2)CC1	24 nM
COc1ccccc1N1CCN(CCCCN2C(=O)C[C@H](NC(=O)c3ccccc3)C2=O)CC1	50 nM
COc1ccccc1N1CCN(CCCN2C(=O)C[C@H](NC(=O)C3CCCCC3)C2=O)CC1	230 nM
COc1ccccc1N1CCN(CCCCNC(=O)[C@@H]2CCC(=O)N2C(=O)C2CCCCC2)CC1	17 nM
COc1ccccc1N1CCN(CCCCN2C(=O)C[C@H](NC(C)=O)C2=O)CC1	69 nM
COc1ccccc1N1CCN(CCCCNC(=O)[C@H](CC(N)=O)NC(=O)CC2CC3CCC2C3)CC1 (some centres undefined)	11 nM
COc1ccccc1N1CCN(CCCN2C(=O)C[C@H](NC(=O)C3CCCC3)C2=O)CC1	170 nM
COc1ccccc1N1CCN(CCCCNC(=O)[C@H]2CCCN2C(=O)CC2CC3CCC2C3)CC1 (some centres undefined)	17 nM
COc1ccccc1N1CCN(CCCCN2C(=O)C[C@H](NC(=O)C3CCCCC3)C2=O)CC1	29 nM
COc1ccccc1N1CCN(CCCCNC(=O)[C@@H]2CCC(=O)N2C(=O)CC2CC3CCC2C3)CC1 (some centres undefined)	12 nM
COc1ccccc1N1CCN(CCCCNC(=O)[C@@H]2CCCN2C(=O)C2CCCCC2)CC1	27 nM
COc1ccccc1N1CCN(CCCCN2C(=O)C[C@@H](NC(=O)CC3CC4CCC3C4)C2=O)CC1 (stereo in doubt; 9'{5,5})	17 nM
COc1ccccc1N1CCN(CCCN2C(=O)C[C@H](NC(C)=O)C2=O)CC1	480 nM
COc1ccccc1N1CCN(CCCCNC(=O)[C@@H]2CCCN2C(=O)C23CC4CC(CC(C4)C2)C3)CC1	4 nM
COc1ccccc1N1CCN(CCCN2C(=O)C[C@H](NC(=O)c3ccccc3)C2=O)CC1	260 nM
COc1ccccc1N1CCN(CCCCNC(=O)[C@@H]2CCCN2C(=O)CC2CC3CCC2C3)CC1 (some centres undefined)	12 nM
COc1ccccc1N1CCN(CCCCN2C(=O)C[C@@H](NC(=O)C34CC5CC(CC(C5)C3)C4)C2=O)CC1	9 nM
COc1ccccc1N1CCN(CCCCN2C(=O)C[C@H](NC(=O)C34CC5CC(CC(C5)C3)C4)C2=O)CC1	15 nM
COc1ccccc1N1CCN(CCCN2C(=O)C[C@H](NC(=O)CC3CC4CCC3C4)C2=O)CC1 (some centres undefined)	40 nM
COc1ccccc1N1CCN(CCCCNC(=O)[C@H]2CCCN2C(=O)C23CC4CC(CC(C4)C2)C3)CC1	25 nM
